Target: T1, DCAF1 WD40 domain (residues 1077-1390) (Homo sapiens, UniProt Q9Y4B6)
T1 construct: DCAF1 WD40 domain (residues 1077-1390)
Assay: DCAF1 binding assay by SPR (Biacore 8K+), DCAF1-3 KD
Details: 25 °C, read-out: DCAF1-3 SPR (KD)

T1 sequence (Q9Y4B6 1077-1390): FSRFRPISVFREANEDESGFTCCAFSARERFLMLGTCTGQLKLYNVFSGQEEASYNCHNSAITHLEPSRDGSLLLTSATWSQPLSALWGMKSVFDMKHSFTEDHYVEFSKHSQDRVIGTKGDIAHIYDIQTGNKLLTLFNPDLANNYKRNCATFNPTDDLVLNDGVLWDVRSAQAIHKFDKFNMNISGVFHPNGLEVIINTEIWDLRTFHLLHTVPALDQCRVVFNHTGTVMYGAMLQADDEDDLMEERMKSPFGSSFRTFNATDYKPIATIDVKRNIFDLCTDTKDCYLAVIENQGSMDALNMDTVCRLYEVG

SMILES	Kd
NC(=O)C[C@H](NC(=O)c1c[nH]nc1-c1cc(F)ccc1F)c1cccc(Cl)c1 [I-267]	> 200 µM
NC(=O)C[C@H](N/C(=N\O)c1cn[nH]c1-c1ccccc1F)c1cccc(Cl)c1 [I-162]	> 200 µM
Cc1cccc(N2CCC[C@@H](Nc3cc(N4CCOCC4)ccn3)C2)c1 [I-510]	100 to 200 µM
COC[C@@](CC(N)=O)(NC(=O)c1c[nH]nc1-c1ccccc1F)c1cccc(Cl)c1 [I-265]	> 200 µM
COc1ccc(N2CCC[C@@H](Nc3cc(N4CCOCC4)ncn3)C2)cc1 [I-10]	> 200 µM
C=CC(=O)N[C@H]1CCN(c2ccnc(N[C@@H]3CCCN(c4cccc(F)c4)C3)c2)C1 [I-478]	> 200 µM
Cc1sc2c(c1C)C(c1ccc(Cl)cc1)=N[C@@H](CC(=O)NCCCCCCCCCCCCCCCCCCCCC(=O)c1[nH]cc(C(=O)N[C@@H](CC(N)=O)c3cccc(Cl)c3)c1-c1ccccc1F)c1nnc(C)n1-2 [I-894]	> 200 µM
O=C(N[C@H](c1cccc(Cl)c1)[C@@H]1CCCNC1=O)c1c[nH]nc1-c1ccccc1F [I-195]	> 200 µM
OCCC[C@@H]1C[C@@H]2[C@@H](CCCN2c2cccc(F)c2)N1c1cc(N2CCCCC2)ccn1 [I-821]	> 200 µM
C=CC(=O)N1CCC(N(C)c2ccnc(N[C@@H]3CCCN(c4cccc(F)c4)C3)c2)C1 (stereo partly drawn) [I-458]	> 200 µM
COCCOCCC1CN(c2cc(N3CCOCC3)ccn2)[C@@H]2CCCN(c3cccc(F)c3)[C@H]12 (stereo partly drawn) [I-828]	> 200 µM
NS(=O)(=O)c1nc(N2CCC[C@@H](Nc3cc(N4CCOCC4)ccn3)C2)cs1 [I-413]	> 200 µM
Fc1cccc(N2CCC[C@@H](Nc3ccnc(N4CCOCC4)n3)C2)c1 [I-321]	> 200 µM
Cc1ccccc1-c1[nH]ncc1C(=O)N[C@@H](CC(N)=O)c1cccc(Cl)c1 [I-209]	> 200 µM
c1cnc2ccc(N3CCC[C@@H](Nc4nccc(N5CCOCC5)n4)C3)cc2c1 [I-56]	> 200 µM
Oc1cnc(N2CCOCC2)cc1N[C@@H]1CCCN(c2cccc(F)c2)C1 [I-382]	> 200 µM
Fc1cccc(N2CCC[C@H](Nc3nccc(N4CCOCC4)n3)C2)c1 [I-119]	100 to 200 µM
c1cn(Cc2ccc(N3CCC[C@@H](Nc4cc(N5CCOCC5)ccn4)C3)cc2)cn1 [I-692]	100 to 200 µM
NC(=O)C[C@H](NC(=O)c1cnc(N)cc1-c1ccccc1F)c1cccc(Cl)c1 [I-589]	> 200 µM
C[C@H]1CC[C@@H](Nc2cc(N3CCOCC3)ncn2)CN1c1cccc(F)c1 [I-234]	> 200 µM
Fc1cccc(N2CCC[C@@H](n3ccc4c(N5CCOCC5)ncnc43)C2)c1 [I-59]	100 to 200 µM

SMILES	Kd
OC1(c2ccccc2)CCC[C@@H](Nc2cc(N3CCCCC3)ccn2)C1 (stereo partly drawn) [I-925]	100 to 200 µM
NC(=O)C[C@H](NC(=O)c1cnn(Cc2ccccc2)c1-c1ccccc1F)c1cccc(Cl)c1 [I-140]	> 200 µM
NC(=O)C[C@H](NC(=O)c1cn[nH]c1[C@H]1CCCCO1)c1cccc(Cl)c1 [I-348]	> 200 µM
C=CC(=O)NC1CCC(c2[nH]ncc2C(=O)N[C@H](CC(N)=O)c2cccc(Cl)c2)CC1 (stereo partly drawn) [I-537]	10 to 100 µM
NC[C@@H]1C[C@H](Nc2cc(N3CCCCC3)ccn2)CN(c2cccc(F)c2)C1 [I-1042]	10 to 100 µM
Cc1c(F)ccc(F)c1-c1[nH]ncc1C(=O)N[C@@H](c1cccc(Cl)c1)[C@H]1CCOC1 [I-965]	100 to 200 µM
C=CC(=O)Nc1cccc(N2CCC[C@@H](Nc3cc(N4CCOCC4)ccn3)C2)c1 [I-450]	> 200 µM
Oc1ccc(F)cc1N1CCC[C@H]2[C@@H]1CCN2c1cc(N2CCCCC2)ccn1 [I-813]	10 to 100 µM
OCCCc1ccc(N2CCC[C@@H](Nc3cc(N4CCOCC4)ccn3)C2)cc1 [I-873]	> 200 µM
CC1(Nc2cc(N3CCOCC3)ccn2)CCCN(c2cccc(F)c2)C1 (stereo not drawn) [I-222]	> 200 µM
COc1ccc(N2CCC[C@@H]3[C@H]2CCN3c2cc(N3CC4CC(C4)C3)ccn2)cc1F [I-722]	> 200 µM
OC[C@H]1C[C@@H](Nc2cc(N3CCCCC3)ccn2)CN(c2cccc(F)c2)C1 [I-936]	10 to 100 µM
Fc1cccc(N2CCC[C@@H](Nc3cc(N4CCOCC4)[nH]n3)C2)c1 [I-329]	> 200 µM
Cc1sc2c(c1C)C(c1ccccc1)=N[C@@H](CC(=O)NCCOCCOCCOCCOCCOCCOCCn1cc(C(=O)N[C@@H](CC(N)=O)c3cccc(Cl)c3)c(-c3ccccc3F)n1)c1nnc(C)n1-2 [I-493]	> 200 µM
NC(=O)[C@H]1CCN(C(=O)c2c[nH]nc2-c2ccccc2F)[C@@H]1c1cccc(Cl)c1 [I-203]	> 200 µM
Fc1cccc(N2CCC[C@@H]3[C@H]2CCCN3c2cc(N3CCCCC3)ccn2)c1 [I-703]	> 200 µM
c1ccc2ncc(N3CCC[C@@H](Nc4nccc(N5CCOCC5)n4)C3)cc2c1 [I-46]	> 200 µM
Cc1cc2nccn2cc1N1CCC[C@@H](Nc2cc(N3CCOCC3)ccn2)C1 [I-765]	> 200 µM
N#Cc1cnc(N2CCOCC2)cc1N[C@@H]1CCCN(c2cccc(F)c2)C1 [I-408]	> 200 µM
FC(F)(F)Oc1ccc(N2CCC[C@@H](Nc3cc(N4CCOCC4)ccn3)C2)nc1 [I-426]	10 to 100 µM

More lines, now with the values ahead:

Kd	SMILES
10 to 100 µM	C=CC(=O)N1CC(N(C)c2ccnc(N[C@@H]3CCCN(c4cccc(F)c4)C3)c2)C1 [I-457]
< 10 µM	Oc1ccc(N2CCC[C@@H](Nc3cc(N4CCCCC4)ccn3)C2)cc1 [I-593]
< 10 µM	Cc1c(F)ccc(F)c1-c1[nH]ncc1C(=O)N[C@@H](CC(=O)N1CCOCC1)c1cccc(Cl)c1 [I-842]
< 10 µM	NC(=O)C[C@H](NC(=O)c1cn[nH]c1-c1ccccc1F)c1ccccc1F [I-602]
10 to 100 µM	NC(=O)CCc1ccc(F)c(-c2[nH]ncc2C(=O)N[C@@H](CC(N)=O)c2cccc(Cl)c2)c1 [I-522]
< 10 µM	NCCOCCOCCOCCOCCOCC(=O)c1[nH]cc(C(=O)N[C@@H](CC(N)=O)c2cccc(Cl)c2)c1-c1ccccc1F [I-675]
10 to 100 µM	Fc1cccc(N2CCC[C@@H]3[C@H]2CCN3c2cc(N3CCCCCC3)ccn2)c1 [I-635]
10 to 100 µM	Cc1c(F)ccc(F)c1-c1[nH]ncc1C(=O)N[C@@H](CC(N)=O)c1ccc(F)c(Cl)c1 [I-819]
10 to 100 µM	NC(=O)C[C@H](NC(=O)c1cn[nH]c1-c1ccccc1C(N)=O)c1cccc(Cl)c1 [I-349]
10 to 100 µM	Nc1cnc(N2CCCCC2)nc1N[C@@H]1CCCN(c2cccc(F)c2)C1 [I-1001]
10 to 100 µM	CCC1CCCN(c2ccnc(N[C@@H]3CCCN(c4cccc(F)c4)C3)c2)C1 (stereo partly drawn) [I-572]
10 to 100 µM	NCC(=O)NCc1ccc(N2CCCCC2)cc1N[C@@H]1CCCN(c2cccc(F)c2)C1 [I-982]
10 to 100 µM	OC[C@H]1C[C@H](Nc2cc(N3CCCCC3)ccn2)CN(c2cccc(F)c2)C1 [I-1012]
10 to 100 µM	NC(=O)C[C@H](NC(=O)c1cn[nH]c1-c1ccc(O)cc1)c1cccc(Cl)c1 [I-333]
10 to 100 µM	OCCC[C@H]1C[C@@H]2[C@@H](CCCN2c2cccc(F)c2)N1c1cc(N2CCCCC2)ccn1 [I-825]
< 10 µM	Nc1ccc(N2CCC[C@@H]3[C@H]2CCN3c2cc(N3CC4CC(C4)C3)ccn2)cc1F [I-733]
< 10 µM	Cc1sc2c(c1C)C(c1ccc(Cl)cc1)=N[C@@H](CC(=O)NCCOCCOCCOCCOCCOCCOCC(=O)c1[nH]cc(C(=O)N[C@@H](CC(N)=O)c3cccc(Cl)c3)c1-c1ccccc1F)c1nnc(C)n1-2 [I-898]
< 10 µM	NC(=O)C[C@H](NC(=O)c1cn[nH]c1C(=O)c1ccccc1)c1cccc(Cl)c1 [I-619]
10 to 100 µM	C=CC(=O)N1CCC(N(C)c2ccnc(N[C@@H]3CCCN(c4cccc(F)c4)C3)c2)CC1 [I-460]
10 to 100 µM	c1cc(N2CCOCC2)cc(N[C@@H]2CCCN(c3ccnc(OC4CC4)c3)C2)n1 [I-687]

Kd	SMILES
< 10 µM	COc1ncc(N[C@@H]2CCCN(c3cccc(F)c3)C2)cc1N1CCOCC1 [I-558]
10 to 100 µM	Nc1ccc(N[C@@H]2CCCN(c3cccc(F)c3)C2)cc1C1CCCCC1 [I-930]
10 to 100 µM	Cc1sc2c(c1C)C(c1ccc(Cl)cc1)=N[C@@H](CC(=O)NCCOCCOCCOCCOCCOCCOCCC1CCN(c3ccnc(N4CC[C@@H]5[C@H]4CCCN5c4cccc(F)c4)c3)CC1)c1nnc(C)n1-2 [I-895]
10 to 100 µM	Fc1cccc(N2CC[C@@]3(CCN(c4cc(N5CCCCC5)ccn4)C3)C2)c1 [I-659]
< 10 µM	Cc1cccc(F)c1-c1c(C(=O)N[C@@H](CC(N)=O)c2cccc(Cl)c2)c[nH]c1C#N [I-637]
10 to 100 µM	c1ccc(CN2CCc3ncnc(N4CCC[C@@H](Nc5cc(N6CCOCC6)ccn5)C4)c3C2)cc1 [I-870]
< 10 µM	Cc1c(F)ccc(F)c1-c1c(C(=O)N[C@@H](CC(N)=O)c2cccc(Cl)c2)c[nH]c1C(=O)c1ccccc1 [I-653]
10 to 100 µM	NCc1cnc(N2CCCCC2)nc1N[C@@H]1CCCN(c2cccc(F)c2)C1 [I-1010]
10 to 100 µM	CC(C)CNc1ccc(N2CCC[C@@H](Nc3cc(N4CCOCC4)ccn3)C2)cc1 [I-693]
< 10 µM	Cc1c(F)ccc(F)c1-c1c(C(=O)N[C@@H](CC(N)=O)c2cccc(Cl)c2)cn(C)c1C(=O)c1ccccc1 [I-886]
< 10 µM	Cc1c(F)ccc(F)c1-c1c(C(=O)N[C@@H](CC(N)=O)c2cccc(Cl)c2)c[nH]c1/C(=N/OC(C)C)c1ccccc1 [I-759]
< 10 µM	COCCC1C2CCC1CN(c1ccnc(N[C@@H]3CCCN(c4cccc(F)c4)C3)c1)C2 (stereo partly drawn) [I-654]
< 10 µM	COCCOCCc1[nH]cc(C(=O)N[C@@H](CC(N)=O)c2cccc(Cl)c2)c1-c1ccccc1F [I-557]
< 10 µM	NC(=O)C[C@H](NC(=O)c1c[nH]c(C(=O)c2ccccc2)c1-c1c(F)c(F)cc(F)c1F)c1cccc(Cl)c1 [I-949]
< 10 µM	Cc1c(F)ccc(F)c1-c1c(C(=O)N[C@@H](CC(N)=O)c2cccc(Cl)c2)csc1C(=O)c1ccccc1 [I-944]
< 10 µM	Fc1cccc(N2CCC[C@@H](Nc3cc(N4C5CCCC4CC5)ccn3)C2)c1 [I-617]
< 10 µM	NCCOCCOCCOCCOCCOCCOCCC1CCN(c2ccnc(N3CC[C@@H]4[C@H]3CCCN4c3cccc(F)c3)c2)CC1 [I-661]
< 10 µM	NC(=O)NCc1cccc(N2CCC[C@H]3[C@@H]2CCN3c2cc(N3CCCCC3)ccn2)c1 [I-953]
< 10 µM	CC1=C(c2[nH]ncc2C(=O)N[C@@H](CC(N)=O)c2cccc(Cl)c2)CCCC1 [I-610]
< 10 µM	NS(=O)(=O)CCc1cccc(N2CCC[C@H]3[C@@H]2CCN3c2cc(N3CCCCC3)ccn2)c1 [I-964]
